Laboratory results taken from patent US5185360A, “Dihydroindenoindole compounds and methods for using the same” (University of Bath, priority 1989, dated 1993).

Assays:
[1] = tested on: lipid peroxidation of soy bean phospholipids; experiment: Ascorbate/Fe^2+-dependent lipid peroxidation; format: biochemical; details: inhibition of ascorbate/Fe^2+-dependent lipid peroxidation by 50%; pH 7.4, room temperature, 30 min
Text: (§1) The most important feature of the compounds of the invention is their efficacy as free-radical scavengers or antioxidants. An assay system measuring the concentration of the compounds of formulas (IA) and (IB) required to inhibit lipid peroxidation by 50% (IC50) was used. Other assays described below are the red blood cell fragility test used for measuring membrane stabilisation by indenoindoles. (Table 2), and protection by indenoindoles against cytotoxicity of N-methyl-N'-nitro-N-nitrosoguanidine (MNNG) in rat hepatocytes (Table 3). MNNG is a highly cytotoxic agent, the mechanism of action of which may involve a radical-mediated membrane destabilization.
For the ferrous/ascorbate lipid peroxidation system, 6.25 ml of 0.1 M potassium phosphate buffer (KPi), pH 7.4, was added to 12.5 mg dried soy bean phospholipids. After flushing with argon for 2 min, the suspension was sealed with five layers of Parafilm and sonicated until the suspension was translucent. The final reaction mixture was composed of 200 μg/ml phospholipid, 10 μM FeNH4 (SO4)2 or Fe(NH4)2 (SO4)2, and 100 μM ascorbic acid in 0.1 M KPi (pH 7.4), and the antioxidant to be tested in acetone or DMSO. The volume of vehicle never exceeded 1% of the total volume. The reaction was initiated by the addition of ascorbic acid plus iron. The reaction was continued at room temperature in a shaking water bath for 30 min and then stopped by the addition of […] of 0.5 M butylated hydroxytoluene in DMSO. The above procedure and the subsequent determination of 2-thibarbituric acid-reactive material is described in: Shertzer, H. G. et al, Biochem. Pharmacol. 37, 333 (1988).

[2] = tested on: mouse liver microsomes; details: NADPH-fortified mouse liver microsomes, initiated with CCl4; FASEB J. 2, A 407 (1988); cited from earlier work
[3] = tested on: lipid peroxidation; details: Fd Chem. Toxicol. 26, 517 (1988); cited from earlier work
[4] = tested on: rat hepatocytes; experiment: Protection against cytotoxic effects of MNNG in hepatocytes; format: cell-based, rat (male Sprague-Dawley); details: Hepatocyte, concentration of compound required to extend by 1 hour the time needed for MNNG to kill 50% of the viable cells, 0.5 mM MNNG
Text: as §1
The protective effects of indenoindoles on MNNG-induced cytotoxicity was assayed with rat hepatocytes. Hepatocytes were prepared from male Sprague-Dawley rats by collagenase treatment as originally described by Zahlten and Stratman (Zahlten, R. N. and Stratman, F. W., Arch. Biochem. Biophys. 163, 600 (1988)), as modified by Reitman et al. (Reitman, F. A. Shertzer, H. G. and Berger, M. L., Biochem. Pharmacol. 37, 3183 (1988)). In order to improve viability, cells were centrifuged through 0.508g/ml Percoll (Pharmacia AB, Uppsala, Sweden) in 137 mM NaCl, 8.1 mM Na2 HPO4 and 1.5 mM KH2 PO4 (pH 7.4). Putative protecting agents were added to the cells as solutions in DMSO, with the final concentration of DMSO never exceeding 5 μl/ml of cell suspension. MNNG was added to a concentration of 0.5 mM as a solution in ethanol, giving a final concentration of ethanol of 1%; ethanol alone was by itself without effect. Viability was determined as the percentage of cells that excluded 0.2% trypan blue. Values are the concentration of compound required to extend by 1 hour, the time needed for MNNG to kill 50% of the viable cells.

[5] = tested on: red blood cells; experiment: Membrane stabilization in red blood cells (red blood cell fragility test); format: cell-based, rat; details: linear regression slope: percentage protection against osmolysis per μM protecting agent; pH 7.4
Text: as §1
The membrane stabilization effect of indenoindoles was assayed by the red blood cell fragility test. Rats were anesthetized with 65 mg phenobarbital per kg body weight by i.p. injection. Blood samples were removed into a heparinized syringe from the left ventricle and diluted 20-fold with buffer containing 140 mM NaCl, 10 mM sodium citrate and 5 mM glucose (pH 7.4) at 0° C. Diluted blood was kept on ice. A 0.75 ml aliquot of blood was added to a 4 ml cuvette containing 10 μl of the antioxidant dissolved in DMSO vehicle. After I min of gentle swirling, 0.75 ml of 0.9 NaCl or H2 O were added to the cuvette by forceful pipetting, and the absorbance at 656 nm was recorded with a Beckman DU-70 spectrophotometer. When H2 O was added in the absence of a stabilizing agent, absorbance decreased within 15 sec to 0.8. Addition of NaCl instead of H2 O gave a time-independent absorbance of 2.2. In the presence of increasing concentrations of stabilizing chemicals, the absorbance decrease observed after the addition of water was diminished. The % protection from osmolysis was obtained from the equation [[(2.2-0.8)- A]/(2.2-0.8)]×100%, where A=2.2 minus the absorbance decrease when water is added in the presence of a known concentration of chemical. The % protection is then plotted against several concentrations of the chemical being treated. The red blood cell fragility protective index value (RBC-PIV) is the linear regression slope of this plot, expressed as the percentage protection against osmolysis per μM protecting agent.

pIC50 [1]	SMILES	RBC-PIV (red blood cell fragility protective index value) [5]	further results
5.6	Fc1ccc2[nH]c3c(c2c1)Cc1ccccc1-3 [8-Fluoro-DHII, 5,10-Dihydro-8-fluoroindeno[1,2-b]indole]		
5.7	Cc1ccc2[nH]c3c(c2c1)Cc1ccccc1-3 [8-Methyl-DHII, 5,10-Dihydro-8-methylindeno[1,2-b]indole]		
5.8	c1ccc2c(c1)Cc1c-2[nH]c2ccccc12 [DHII, 5,10-Dihydroindeno[1,2-b]indole]	0.49 %/μM	inhibition of lipid peroxidation [2]: inhibiting lipid peroxidation; inhibition of lipid peroxidation [3]: potent inhibitor of lipid peroxidation; IC50 [4]: 3.1 µM
5.8	c1ccc2c(c1)Cc1[nH]c3ccccc3c1-2 [iso-DHII, 5,6-Dihydroindeno[2,1-b]indole]	0.50 %/μM	inhibition of lipid peroxidation [2]: inhibiting lipid peroxidation; IC50 [4]: 3.4 µM
6.4	COc1ccc2[nH]c3c(c2c1)-c1ccccc1C3 [9-Methoxy-iso-DHII, 5,6-Dihydro-9-methoxyindeno[2,1-b]indole]		
5.7	CC1c2ccccc2-c2[nH]c3ccccc3c21 (centres unmarked) [10-Methyl-DHII, 5,10-Dihydro-10-methylindeno[1,2-b]indole]		
6.1	CC1(C)c2ccccc2-c2[nH]c3ccccc3c21 [10,10-Dimethyl-DHII, 5,10-Dihydro-10,10-dimethylindeno[1,2-b]indole]	0.48 %/μM	
5.1	Cn1c2c(c3ccccc31)Cc1ccccc1-2 [5-Methyl-DHII, 5,10-Dihydro-5-methylindeno[1,2-b]indole]	0.74 %/μM	IC50 [4]: 6 µM

More lines, now with the values behind:

SMILES	pIC50 [1]	RBC-PIV (red blood cell fragility protective index value) [5]	further results
CCN(CC)c1ccc2c(c1)Cc1c-2[nH]c2ccccc12 [2-Diethylamino-DHII, 5,10-Dihydro-2-(N,N-diethylamino)indeno[1,2-b]indole]	7.4		
CC(C)c1ccc2[nH]c3c(c2c1)Cc1ccccc1-3 [8-Isopropyl-DHII, 5,10-Dihydro-8-iso-propylindeno[1,2-b]indole]	5.6		
Clc1cccc2c3c([nH]c12)-c1ccccc1C3 [6-Chloro-DHII, 5,10-Dihydro-6-chloroindeno[1,2-b]indole]	5.2		
Cc1c(C)c2c(c(C)c1O)CCC(C)(CCCC(C)CCCC(C)CCCC(C)C)O2 (stereo not drawn) [α-Tocopherol (Vitamin E), α-Tocopherol, reference compound]	5.0	0.10 %/μM	
COc1ccc2[nH]c3c(c2c1)Cc1ccccc1-3 [8-Methoxy-DHII, 5,10-Dihydro-8-methoxyindeno[1,2-b]indole]	6.2		
CCNc1ccc2c(c1)Cc1c-2[nH]c2ccccc12 [2-Ethylamino-DHII, 5,10-Dihydro-2-(N-ethylamino)indeno[1,2-b] indole]	7.9		
Cc1cc(C)c2[nH]c3c(c2c1)Cc1ccccc1-3 [6,8-Dimethyl-DHII, 5,10-Dihydro-6,8-dimethylindeno[1,2-b]indole]	6.1		
